Source: patent US10869931B2, “Polyethylene glycol-modified angiogenesis inhibitor HM-1 and application thereof” (NANJING ANJI BIOLOGICAL TECHNOLOGY CO.,LTD, priority 2016, dated 2020)
Marks after values point to notes of the source that are not given here. Where no end group is shown, it is not given here.

Key:
[1] = test system: Kidney cancer tumor cells; assay: MTT proliferation inhibition, kidney cancer cells; assay type: cell-based, human; design: concentration or dose not given beside the values; conditions: 48 h
Summary of the method: (§1)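 Tumour cells plated at 2×10^4 cells/mL, attached overnight, then exposed to dilutions of mPEG-HM-1 for 48 h at 37 °C, 5% CO2. MTT added 4 h, formazan dissolved in DMSO, absorbance 570/630 nm; growth inhibition = 1 − treated/untreated, three independent repeats, mean±SD.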

[2] = test system: xylene-induced ear swelling in Kunming mice; assay: Xylene-induced ear swelling in mice; assay type: in vivo, mouse; conditions: for Inhibition rate: ear swelling vs control
Summary of the method: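 Kunming mice were dosed once daily for 5 days (aspirin 200 mg/kg as positive control, saline as blank). One hour after the last dose, xylene was applied to the right ear, with the left ear as untreated reference. Ear punches were weighed 2 h later; swelling degree = right − left weight, rate = degree/left weight ×100%.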

[3] = test system: Cervical cancer tumor cells; assay: MTT proliferation inhibition, cervical cancer cells; assay type: cell-based, human; design: concentration or dose not given beside the values; conditions: 48 h
Summary of the method: as §1

[4] = test system: Human Umbilical Vein Endothelial Cells (HUVEC); assay: Transwell migration of HUVEC; assay type: cell-based; conditions: 24 h
Summary of the method: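 HUVEC (1×10^5/mL in blank medium) seeded with test solutions into Matrigel-coated transwell inserts, lower chamber holding medium with 5% FBS and 1% ECGS, 24 h at 37 °C. Migrated cells crystal-violet stained and counted in four fields; migration inhibition calculated from test versus blank-control counts, three independent repeats.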

[5] = test system: Brain tumor cells; assay: MTT proliferation inhibition, brain tumor cells; assay type: cell-based, human; design: concentration or dose not given beside the values; conditions: 48 h
Summary of the method: as §1

[6] = test system: Liver cancer tumor cells; assay: MTT proliferation inhibition, liver cancer cells; assay type: cell-based, human; design: concentration or dose not given beside the values; conditions: 48 h
Summary of the method: as §1

[7] = test system: IL-1β production by mouse peritoneal macrophages; assay: IL-1β production by mouse peritoneal macrophages (ELISA); assay type: cell-based; conditions: 48 h
Summary of the method: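 Starch-elicited mouse peritoneal macrophages (2×10^6 cells/mL), adhered 3 h, treated with low, medium and high concentrations of mPEG-HM-1 for 48 h; dexamethasone as positive control. Supernatant IL-1β quantified by sandwich ELISA at OD450.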

[8] = test system: Thyroid cancer tumor cells; assay: MTT proliferation inhibition, thyroid cancer cells; assay type: cell-based, human; design: concentration or dose not given beside the values; conditions: 48 h
Summary of the method: as §1

[9] = 40 mg/kg once daily for 5 days, 2 h after xylene
[10] = 80 mg/kg once daily for 5 days, 2 h after xylene
[11] = 5 mg/kg once daily for 5 days, right minus left ear piece weight 2 h after xylene
[12] = 10 mg/kg once daily for 5 days, 2 h after xylene
[13] = 20 mg/kg once daily for 5 days, 2 h after xylene

Substance | rate of growth inhibition [1] [%] | rate of growth inhibition [3] [%] | rate of growth inhibition [5] [%] | rate of growth inhibition [6] [%] | rate of growth inhibition [8] [%] | Inhibition rate ([2]; 5 mg/kg once daily for 5 days) [%] | Swelling [2, 11] [mg] | Swelling [2, 12] | Inhibition rate ([2]; 10 mg/kg once daily for 5 days) [%] | Swelling [2, 13] | Inhibition rate ([2]; 20 mg/kg once daily for 5 days) [%] | cell migration number (Mean ± SD) ([4]; 30 μg/mL) | inhibition rate of HUVEC migration ([4]; 30 μg/mL) [%*] | cell migration number (Mean ± SD) ([4]; 40 μg/mL) | inhibition rate of HUVEC migration ([4]; 40 μg/mL) [%] | cell migration number (Mean ± SD) ([4]; 50 μg/mL) | inhibition rate of HUVEC migration ([4]; 50 μg/mL) [%] | cell migration number (Mean ± SD) ([4]; 60 μg/mL) | IL-1β ([7]; 20 μg/mL) [pg/mL] | Inhibition Rate of IL-1β production ([7]; 20 μg/mL) [%] | other results
mPEG-bALD40k-Arg-Gly-Ala-Asp-Arg-Ala-Gly-Gly-Gly-Gly-Arg-Gly-Asp ({mPEG‑bALD 40 kDa}-RGADRAGGGGRGD) [mPEG-bALD40k-HM-1] | 60.06 ± 18.88 | 70.34 ± 19.04 | 51.89 ± 11.91 | 58.72 ± 10.80 | 45.53 ± 12.98 | – | – | – | – | – | – | – | – | – | – | – | – | – | – | – | Swelling [2, 9]: 5.25 ± 0.12 mg; Inhibition rate ([2]; 40 mg/kg once daily for 5 days): 13.45%; Swelling [2, 10]: 4.68 ± 0.72* mg; Inhibition rate ([2]; 80 mg/kg once daily for 5 days): 22.94%; Swelling ([2]; 160 mg/kg once daily for 5 days, 2 h after xylene): 4.06 ± 0.26** mg; Inhibition rate ([2]; 160 mg/kg once daily for 5 days): 33.09%; cell migration number (Mean ± SD) ([4]; 90 μg/mL): 652.01 ± 52.63; inhibition rate of HUVEC migration ([4]; 90 μg/mL): 40.30%*; cell migration number (Mean ± SD) ([4]; 100 μg/mL): 523.03 ± 60.52; inhibition rate of HUVEC migration ([4]; 100 μg/mL): 52.11%; cell migration number (Mean ± SD) ([4]; 110 μg/mL): 545.63 ± 46.84; inhibition rate of HUVEC migration ([4]; 110 μg/mL): 50.04%; cell migration number (Mean ± SD) ([4]; 120 μg/mL): 596.64 ± 50.46; inhibition rate of HUVEC migration ([4]; 120 μg/mL): 45.37%*; IL-1β ([7]; 40 μg/mL): 740.78 ± 16.79 pg/mL; Inhibition Rate of IL-1β production ([7]; 40 μg/mL): 19.67%; IL-1β ([7]; 80 μg/mL): 648.10 ± 14.55 pg/mL; Inhibition Rate of IL-1β production ([7]; 80 μg/mL): 29.72%; IL-1β ([7]; 160 μg/mL): 518.91 ± 12.90 pg/mL; Inhibition Rate of IL-1β production ([7]; 160 μg/mL): 43.73%
mPEG-bALD5k-Arg-Gly-Ala-Asp-Arg-Ala-Gly-Gly-Gly-Gly-Arg-Gly-Asp ({mPEG‑bALD 5 kDa}-RGADRAGGGGRGD) [mPEG-bALD5k-HM-1] | 57.63 ± 12.09 | 64.52 ± 16.88 | 45.11 ± 12.09 | 55.63 ± 10.27 | 42.19 ± 10.35 | 10.36 | 5.44 ± 0.19 | 4.83 ± 0.30* mg | 20.47 | 4.18 ± 0.25** mg | 31.08 | 654.96 ± 52.07 | 40.03 | 545.96 ± 45.32 | 50.01 | 489.28 ± 46.98 | 55.20 | 577.96 ± 58.76 | 533.11 ± 10.87 | 42.19 | inhibition rate of HUVEC migration ([4]; 60 μg/mL): 47.08%*; IL-1β ([7]; 5 μg/mL): 729.25 ± 18.34 pg/mL; Inhibition Rate of IL-1β production ([7]; 5 μg/mL): 20.92%; IL-1β ([7]; 10 μg/mL): 659.63 ± 16.52 pg/mL; Inhibition Rate of IL-1β production ([7]; 10 μg/mL): 28.47%
mPEG2-NHS5k-Arg-Gly-Ala-Asp-Arg-Ala-Gly-Gly-Gly-Gly-Arg-Gly-Asp ({mPEG2‑NHS 5 kDa}-RGADRAGGGGRGD) [mPEG2-NHS5k-HM-1] | 47.52 ± 11.48 | 49.15 ± 14.23 | 40.35 ± 10.29 | 50.92 ± 11.66 | 36.23 ± 12.15 | 10.02 | 5.56 ± 0.19 | 4.94 ± 0.28* mg | 20.05 | 4.31 ± 0.20** mg | 30.23 | 611.33 ± 58.92 | 41.03 | 516.16 ± 48.34 | 50.21 | 475.01 ± 50.90 | 54.18 | 590.29 ± 50.72 | 563.37 ± 13.21 | 39.17 | inhibition rate of HUVEC migration ([4]; 60 μg/mL): 43.06%*; IL-1β ([7]; 5 μg/mL): 763.97 ± 15.46 pg/mL; Inhibition Rate of IL-1β production ([7]; 5 μg/mL): 17.51%; IL-1β ([7]; 10 μg/mL): 681.45 ± 12.09 pg/mL; Inhibition Rate of IL-1β production ([7]; 10 μg/mL): 26.42%
mPEG-ALD5k-Arg-Gly-Ala-Asp-Arg-Ala-Gly-Gly-Gly-Gly-Arg-Gly-Asp ({mPEG‑ALD 5 kDa}-RGADRAGGGGRGD) [mPEG-ALD5k-HM-1] | 55.43 ± 14.04 | 61.12 ± 18.39 | 42.15 ± 12.89 | 52.98 ± 11.55 | 40.23 ± 10.05 | 10.17 | 5.50 ± 0.21 | 4.80 ± 0.35* mg | 21.52 | 4.16 ± 0.14** mg | 32.10 | 606.88 ± 58.90 | 41.02 | 494.52 ± 52.69 | 51.94 | 415.39 ± 44.92 | 59.63 | 578.69 ± 66.03 | 516.13 ± 10.95 | 43.71 | inhibition rate of HUVEC migration ([4]; 60 μg/mL): 43.76%*; IL-1β ([7]; 5 μg/mL): 734.73 ± 16.59 pg/mL; Inhibition Rate of IL-1β production ([7]; 5 μg/mL): 19.87%; IL-1β ([7]; 10 μg/mL): 654.50 ± 18.43 pg/mL; Inhibition Rate of IL-1β production ([7]; 10 μg/mL): 28.62%
mPEG2-NHS20k-Arg-Gly-Ala-Asp-Arg-Ala-Gly-Gly-Gly-Gly-Arg-Gly-Asp ({mPEG2‑NHS 20 kDa}-RGADRAGGGGRGD) [mPEG2-NHS20k-HM-1] | 55.20 ± 15.43 | 60.63 ± 19.39 | 45.51 ± 10.15 | 55.03 ± 14.19 | 43.68 ± 13.61 | – | – | – | – | 5.52 ± 0.16 mg | 10.65 | – | – | – | – | – | – | – | 759.06 ± 16.96 | 18.04 | Swelling [2, 9]: 4.80 ± 0.29* mg; Inhibition rate ([2]; 40 mg/kg once daily for 5 days): 22.37%; Swelling [2, 10]: 3.96 ± 0.22** mg; Inhibition rate ([2]; 80 mg/kg once daily for 5 days): 35.92%; cell migration number (Mean ± SD) ([4]; 70 μg/mL): 618.48 ± 47.53; inhibition rate of HUVEC migration ([4]; 70 μg/mL): 40.34%*; cell migration number (Mean ± SD) ([4]; 80 μg/mL): 512.85 ± 40.86; inhibition rate of HUVEC migration ([4]; 80 μg/mL): 50.53%; cell migration number (Mean ± SD) ([4]; 90 μg/mL): 434.68 ± 42.64; inhibition rate of HUVEC migration ([4]; 90 μg/mL): 58.07%; cell migration number (Mean ± SD) ([4]; 100 μg/mL): 562.61 ± 62.34; inhibition rate of HUVEC migration ([4]; 100 μg/mL): 45.73%*; IL-1β ([7]; 40 μg/mL): 655.24 ± 18.59 pg/mL; Inhibition Rate of IL-1β production ([7]; 40 μg/mL): 29.25%; IL-1β ([7]; 80 μg/mL): 552.35 ± 10.50 pg/mL; Inhibition Rate of IL-1β production ([7]; 80 μg/mL): 40.36%
